The values that follow come from patent US6949528B1, “Compositions containing lysophosphatidic acids which inhibit apoptosis and uses thereof” (priority 1998, dated 2005).

Holding throughout (assay type): cell-based
In data set [1] the test system is rat neonatal cardiomyocytes. As to the kind of experiment: Cardiomyocyte death induced by serum/glucose deprivation. The note with it: for Emax: Rattus norvegicus, Cardiomyocyte, read-out: Maximum effect relative to 18:1 LPA in cardiomyocytes. As for the experimental part: Cardiomyocytes were prepared from hearts of day-old Sprague Dawley rats by trypsinization and mechanical disaggregation (Simpson, (1985)) Circ. Res. 56:884-894. The cells were resuspended in MEM, 1×MEM vitamins (Gibco), 5% fetal bovine serum and 50 U/ml penicillin-G and pre-plated for 30 minutes to reduce contamination of non-myocytes. The non-adherent cardiac myocytes were separated and seeded in 2 ml in 35 mm dishes at a density of 3.5×10^5 viable cells per ml. The cells were allowed to adhere for 16-24 hours in a 37° C./5% CO2 humidified incubator.
For serum deprivation, the medium was replaced with fresh serum-free RPMI, whereas serum/glucose deprivation was performed using glucose-free RPMI. The induction of cell death by adriamycin or C2-ceramide was accomplished by the addition of the agent prepared in serum-free RPMI. As a model of ischemia, cultures in serum and glucose free RPMI were placed in an airtight chamber and the latter was continuously perfused with oxygen-free gas overlay of 95% N2/5% CO2 for 8 hours at 37° C. To model reperfusion of the ischemic cells, 10% fetal bovine serum, 2 g/L of glucose were added and the cultures were returned to a normal oxygen gas overlay (37° C./5% CO2) in a humidified incubator for 16 hours.
T investigate effects of LPA, LPA plus other phospholipids, PEG or their mixtures on cell death, various combinations of these components were added to cells in serum free medium at the beginning of cytotoxic treatment.
Because cardiomyocytes are terminally differentiated non-dividing cells, viability was determined by measurement of the decrease in the relative number of adherent cells. […] Adherent cardiomyocytes were collected from culture dishes using 0.25% Trypsin/0.05% EDTA and counted on Coulter Counter ZM and Coulter Channelyzer 256.

The test system of data set [2] is C3H/10T1/2 cells. As to the kind of experiment: Anti-apoptotic activity assay: serum deprivation of C3H/10T1/2 cells. The conditions noted are these: for Concentration for Max Effect / Maximum effect relative to 18:1 LPA: serum-deprived C3H/10T1/2 cells, 24 hours of treatment; for activity compared with lysophosphatidic acid: Table 3. The source says: In order to determine the […] of the claimed invention, the following method of analysis was used. The cell assay is described in detail in U.S. Pat. Nos. 5,637,486, 5,620,888, and 5,681,703, and Tomei et al. (1993) Proc Natl. Aci. 90:853-857. Briefly, mouse fibroblast C3H/10T1/2 cells (clone 8) were obtained from ATCC (Rockville, Md.) and were maintained in exponential growth phase in which the cell cycle is randomly distributed and no cells are arrested in G0, and in quiescence. Exponential growth phase was assured by seeding at 2000 cells per 1 ml (5 ml for 60 mm culture plate) five days prior to the beginning of the experiment. Assays were performed on cells only up to passage 15. At T=0, cultures were transferred to serum-free medium, as an appropriate stimulus, and seed extracts were added. Controls included 10^−7 and 5×10^−8 M 12-O-tetradecanoyl phorbol-13-acetate (TPA) to ensure the responsiveness of the cell culture. The samples were added to serum free medium and sterile filtered prior to addition to the cultures. Assays were performed in triplicate or quadruplicate. Analyses of the cell responses were made between 18 and 28 hours of serum deprivation. Two assays were performed on each cell culture plate consisting of differential cell counts.
1. All non-adherent or loosely adherent cells were removed from the culture dish and counted by appropriate techniques, typically counting by electronic particle counting instrument. These are the apoptotic cells, the serum deprived released cells (SDR), released by the action of cultivation in serum-free medium. Approximately 95% of these released cells are apoptotic as shown by both ultrastructure analysis and DNA fragmentation analysis.
2. The remaining adherent cells (ADH) were exposed to a buffered, typically pH 7.3, balanced salt solution such as a Hanks Balanced Salt Solution without calcium and magnesium salts containing 0.05% trypsin and 0.53 mM ethylene diaminetetraacetic acid (EDTA). Each culture was incubated at either room temperature or 37(C on a rocking platform to ensure uniform distribution of the trypsin reagent over the culture surface. After a standardized period of time, typically 10 minutes, the released cells were removed from each culture dish and measured by the same means as described above, typically electronic particle counting. This ADH cell count is comprised of both trypsin resistant and trypsin sensitive cells as described in U.S. Pat. Nos. 5,637,486, 5,620,888, and 5,681,703.
Anti-apoptotic activity is expressed in the following examples as the calculated concentration of material ((g/ml of media) required to save 50% of the cells released on serum free treatment.
The ability of 18:1-LPA an other LPAs to protect serum-starved cells from apoptotic death was measured using the C3H/10T1/2 cell assay, performed as described in Example 2. The effect of various compounds on the ability of lysophosphatidic acid to protect serum-starved cells from apoptotic death was also measured. Log phase cells were seeded in 60 mm Petri dishes at 175-350 cells per cm2 and maintained in Basal Medium Eagle (BME) supplemented with 10% Heat Inactivated Fetal Bovine Serum (HIFBS). On day 3 the cells were given fresh media. Treatment began on day 5 when the media containing serum was removed and replaced with the LPA mixture to be tested. After 24 hours of treatment, day 6, serum deprived released (SDR) cells (the […] cell population) and adherent (ADH) cells were separated and counted using an electronic cell counter (Coulter Corporation, Hialea, Fla.). […]

The subject of data set [3] is C3H/10T1/2 cells. As to the kind of experiment: Effect of proteins on anti-apoptotic activity of soy LPA, C3H/10T1/2 cell assay. The note with it: for Protein +10 (g/mL Soy LPA, percent cells saved from apoptosis): 1:10 soy-LPA to protein (weight:weight); for Protein +10 (g/mL Soy LPA, percent cells saved from apoptosis) / Protein Alone (0.01%), percent cells saved from apoptosis: 24 hours serum deprivation; for Increase with LPA: difference protein + soy LPA minus protein alone; for Protein Alone (0.01%), percent cells saved from apoptosis: protein without LPA; for enhancement of the anti-apoptotic activity of soy-LPA (more than additive protection): soy-LPA added together with protein. As for the experimental part: Soy derived LPA (soy-LPA) (Avanti® Polar Lipids, Inc., Alabaster, Ala.) was stored in an organic solution and was dried immediately prior to assay using a Speed Vac (Savant Instruments, Hicksville, N.Y.). Tested proteins were resuspended at 10_mg/mL in a bicarbonate buffered saline/EDTA solution (50_mM NH4HCO3, […] NaCl, 250_(M EDTA) prior to being added to dried soy-LPA at a 1:10_soy-LPA to protein (weight:weight) ratio. The mixture was then sonicated for 5 minutes using a high power 80 Watt sonication bath (Laboratory Supplies Co., Hicksville, N.Y.). Following sonication, concentrated LPA/protein mixtures were left standing for 15 minutes at room temperature prior to dilution in cell culture assay media.
The effect of various proteins on the ability of LPA to protect serum-starved cells from apoptotic death was measured using the C3H/10T1/2 cell assay, performed as described in Example 2, above. Log phase cells were seeded in 60 mm Petri dishes at 175-350 cells per cm^2 and maintained in Basal Medium Eagle (BME) supplemented with 10% fetal calf serum (Hyclone, Logan, Utah). At time zero, serum containing media was replaced with sterile filtered BME containing the LPA/protein mixture to be tested. After 24 hours of treatment, serum deprived release (SDR) cells (the apoptotic cell population) and adherent (ADH) cells were separated and counted using an electronic cell counter (Coulter Corporation, Hialea, Fla.). SDR cells were counted with the lower threshold setting at 6.3_(m and were defined as the apoptotic cells dying in response to cultivation in serum-free-media. Approximately 95% of the SDR cells are confirmed to be apoptotic as previously shown by size, ultrastructure and DNA fragmentation analysis. Adherent cells were removed by treatment with a Hanks' balanced salt solution containing 0.05% trypsin and 0.53_mM EDTA and were counted with the lower threshold setting at 11.01_(m. All samples were tested in triplicate and serum-deprived controls (BME only) were assayed at both the beginning and end of each experiment.

Where two headings read alike, the source gives them in different places.

Turning to `CCCCCCCCCCCCCCOCC(O)COP(=O)(O)O` (racemic) [Compound 4, 3-O-Tetradecyl-rac-glycero-1-phosphate], the “Toxic concentration range in cardiomyocytes” value in data set [1] (serum/glucose deprivation) is on record as “Toxic (3-30 μM)”. In addition, the “Maximum effect relative to 18:1 LPA: Toxic” value in data set [2] was “Toxic”. Besides, the “lowest concentration at which cytotoxic effects were observed (column Concentration for Max Effect)” value in data set [2] (mouse, 24 h) is 10 µM.
In the case of `CCCCCCCCCCOCC(O)COP(=O)(O)O` (racemic) [Compound 11, 3-O-Decyl-rac-glycero-1-phosphate], in data set [1] (serum/glucose deprivation), the Emax was 100% and the “Concentration ranges for cardiomyocyte protection” value (from here on “Concentration ranges”) lay in the range of 1 to 10 µM.
`CCCCCCCC/C=C\CCCCCCCCOCCCOP(=O)(O)O` [Compound 16, 3-O-Oleyloxypropyl-1-phosphate]: in data set [1] (serum/glucose deprivation), the “Concentration ranges” value was 1 to 3 µM and the “Maximum effect relative to 18:1 LPA in cardiomyocytes” value stood at 100%. Also, in data set [2], the “Concentration for Max Effect” value came out at 10 µM and the “Maximum effect relative to 18:1 LPA” value was determined as 100%.
Regarding Myelin Basic Protein, in data set [3], the “Protein +10 (g/mL Soy LPA, percent cells saved from apoptosis)” value stood at 17.0%; the “Increase with LPA” value is reported as “+0.2%”; the “Protein Alone (0.01%), percent cells saved from apoptosis” value is 16.8%; the “enhancement of the anti-apoptotic activity of soy-LPA (more than additive protection)” value (shortened to “enhancement”) is given as “did not enhance”.
With `CCCCCCCC/C=C\CCCCCCCC(=O)OCC(COP(=O)(OC)OC)OC` (racemic) [Compound 45, Dimethyl 3-O-oleoyl-2-O-methyl-rac-glycero-1-phosphate], the Emax in data set [1] was determined as 30%. Besides, the “Concentration ranges” value in data set [1] (serum/glucose deprivation) amounted to 30 µM.
`CCCCCCCC/C=C\CCCCCCCCOCC(COP(O)(O)=S)OC` (racemic) [Compound 66, 3-O-Oleyl-2-O-methyl-rac-glycero-1-thiophosphate]: in data set [1] (serum/glucose deprivation), the “Concentration ranges” value is “.03 to 1 µM” and the “Maximum effect relative to 18:1 LPA in cardiomyocytes” value is on record as 60%. For the same molecule, in data set [2], the “activity compared with lysophosphatidic acid” value was “activity significantly higher than lysophosphaticid acid”, the “Concentration for Max Effect” value is 1 µM and the “Maximum effect relative to 18:1 LPA” value was 130%.
For the molecule `CCCCCCCCCCOCCCOP(=O)(O)O` [Compound 19, 3-Decyloxypropyl-1-phosphate], in data set [1] (serum/glucose deprivation), the “Concentration ranges” value fell in the range of 1 to 10 µM and the “Maximum effect relative to 18:1 LPA in cardiomyocytes” value turned out to be 100%. In addition, in data set [2], the “Concentration for Max Effect” value was determined as 30 µM and the “Maximum effect relative to 18:1 LPA” value came to 50%.
In the case of `CCCCCCCC/C=C\CCCCCCCCOC(=O)C(COP(O)(O)=S)OC` (racemic) [Compound 78, Oleyl 1-thiophosphoryl-2-O-methyl-rac-glycerate], in data set [1] (serum/glucose deprivation), the “Concentration ranges” value was “.01 to 3 µM” and the “Maximum effect relative to 18:1 LPA in cardiomyocytes” value came out at 130%. In addition, in data set [2], the “activity compared with lysophosphatidic acid” value is on record as “activity significantly higher than lysophosphaticid acid”, the “Concentration for Max Effect” value is 1 µM and the “Maximum effect relative to 18:1 LPA” value is listed as 160%.
As for `CCCCCCCC/C=C\CCCCCCCC(=O)OCCCOP(=O)(O)O` [Compound 30, 1-(3-propyl oleoate)phosphate], in data set [1] (serum/glucose deprivation), the “Concentration ranges” value was 1 to 10 µM and the “Maximum effect relative to 18:1 LPA in cardiomyocytes” value is given as 150%. Besides, in data set [2], the “Concentration for Max Effect” value worked out at 30 µM and the “Maximum effect relative to 18:1 LPA” value was 100%.
For `CCCCCCCC/C=C\CCCCCCCC(=O)OCCCOP(O)(O)=S` [Compound 68, 1-(3-propyloleoate)thiophosphate] the same measures were “.003 to 10 µM”, 100%, 1 µM and 150%.
Consider Casein, for which, in data set [3], the “Protein +10 (g/mL Soy LPA, percent cells saved from apoptosis)” value was 84.3%; the “Increase with LPA” value is “+20.9%”; the “Protein Alone (0.01%), percent cells saved from apoptosis” value worked out at 63.4%; the “enhancement” value is listed as “to a lesser degree”.
`CCCCCCCCCCCCCCCC(=O)OCC(O)COP(=O)(O)O` (stereo not shown) [16:0 LPA, Palmitoyl-LPA, reference compound]: in data set [2] (5 (M, FIG. 5), medium alone 30%), the cells protected result is reported as “about 42%”. Further, the cells protected in data set [2] (15 (M, FIG. 5)) was found to be 63%. Also, in data set [2], the “Concentration for Max Effect” value was 10 µM and the “Maximum effect relative to 18:1 LPA” value is reported as 80%.

B1: Myoglobin: myoglobin from horse heart (protein, UniProt P68082 2-154, looked up)
Myoglobin: GLSDGEWQQVLNVWGKVEADIAGHGQEVLIRLFTGHPETLEKFDKFKHLKTEAEMKASEDLKKHGTVVLTALGGILKKKGHHEAELKPLAQSHATKHKIPIKYLEFISDAIIHVLHSKHPGDFGADAQGAMTKALELFRNDIAAKYKELGFQG
Regarding B1, in data set [3], the “Protein +10 (g/mL Soy LPA, percent cells saved from apoptosis)” value stood at 27.8%; the “Increase with LPA” value is on record as “+18.5%”; the “Protein Alone (0.01%), percent cells saved from apoptosis” value worked out at 9.3%; the “enhancement” value is “to a lesser degree”.
